The results in this text go back to patent publication US20260001928A1 (CORTERIA PHARMACEUTICALS, priority 2022, published 2026).

One assay addresses T1, CFR1R receptor (Homo sapiens, UniProt P34998).
T1 construct: host or cells: CHO-K1 (clone 2)
T1 sequence (P34998 24-415): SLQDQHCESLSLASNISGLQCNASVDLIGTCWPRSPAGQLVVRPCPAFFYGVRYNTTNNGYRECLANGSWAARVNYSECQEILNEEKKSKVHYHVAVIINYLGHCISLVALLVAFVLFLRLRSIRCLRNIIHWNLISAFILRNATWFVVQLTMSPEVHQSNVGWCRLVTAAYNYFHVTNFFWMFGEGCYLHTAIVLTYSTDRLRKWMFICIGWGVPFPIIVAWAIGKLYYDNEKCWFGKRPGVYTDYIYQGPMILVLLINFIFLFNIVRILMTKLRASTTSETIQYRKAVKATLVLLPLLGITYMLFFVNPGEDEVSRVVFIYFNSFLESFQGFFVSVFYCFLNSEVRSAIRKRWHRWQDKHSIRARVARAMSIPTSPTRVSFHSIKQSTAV
The experiment in a line: Activity at anti-target CFR1R receptor, cAMP assay in CRF1R-overexpression CHO-K1 cells. The class given is cell-based. The settings on record: 100% = Sauvagine at 100 nM; for EC50: cAMP. The procedure, abridged: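 The method mirrors that used with TeloHAEC cells. Here, thawed clone 2 cells seeded at 4000 cells/well are tested, and 100 nM Sauvagine sets the top of the activation scale.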

Another assay addresses T2, human CRF2a receptor (Homo sapiens, UniProt Q13324).
T2 construct: expressed in transfected cells; host or cells: TeloHEAC cells
T2 sequence (Q13324 1-411): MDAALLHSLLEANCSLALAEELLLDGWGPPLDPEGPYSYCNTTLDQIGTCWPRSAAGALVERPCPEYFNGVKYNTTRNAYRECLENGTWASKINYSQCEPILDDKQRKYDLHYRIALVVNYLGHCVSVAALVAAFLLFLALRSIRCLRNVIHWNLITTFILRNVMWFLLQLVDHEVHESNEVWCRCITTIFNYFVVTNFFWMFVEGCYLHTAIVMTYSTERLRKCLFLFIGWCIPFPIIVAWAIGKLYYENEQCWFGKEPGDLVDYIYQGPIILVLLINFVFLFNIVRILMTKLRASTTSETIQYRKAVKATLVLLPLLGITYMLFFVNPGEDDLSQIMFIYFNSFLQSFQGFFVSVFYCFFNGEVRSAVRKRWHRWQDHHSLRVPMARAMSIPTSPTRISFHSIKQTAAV
The assay is described as follows: Activity at human CRF2a receptor, cAMP functional assay in TeloHEAC cells. The settings on record: TeloHEAC cells stably expressing human CRF2a receptor, relative to urocortin 2 (100 nM = 100%). The class given is cell-based. The procedure, abridged: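 cAMP accumulation was measured by HTRF 665/620 nm ratio after 30 min at 37° C compound exposure (16 twofold dilutions) of CRF2a-expressing TeloHEAC cells, 10000/well, in HEPES-buffered HBSS plus IBMX. Activity was normalised to urocortin 2 at 100 nM (100%), and EC50 was the concentration giving half-maximal activation.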

*1 amine or outer side, *2 acyl side, *3 side chain or, on linkers, in order; H or OH if unused. Where a SMILES comes first, the peptide text is derived from it. Side-chain parts run from the residue outwards. [ ]: non-standard residue; d: D form. The star is where a group is joined. C16 diacid = O=C(O)CCCCCCCCCCCCCCC(=O)*; γGlu = O=C(O)[C@H](CCC(=O)[*:2])N[*:1]; αMeL = CC(C)C[C@](C)(N)C(=O)O; Pentanoyl = CCCCC(=O)*; Aib = CC(C)(N)C(=O)O

Usually EC50 stands for the concentration that produces a half-maximal response. With `CCCCC(=O)N[C@H](C(=O)N[C@@H](CC(C)C)C(=O)N[C@@H](CO)C(=O)N[C@@H](CC(C)C)C(=O)N[C@@H](CC(=O)O)C(=O)N[C@@H](C(=O)N1CCC[C@H]1C(=O)N[C@H](C(=O)N[C@@H](CCCCN)C(=O)N[C@@H](CC(C)C)C(=O)N[C@@H](CCCCNC(=O)CC[C@H](NC(=O)CCCCCCCCCCCCCCC(=O)O)C(=O)O)C(=O)N[C@@H](CCCCN)C(=O)N[C@H](C(=O)N[C@@H](CC(C)C)C(=O)N[C@@H](CC(C)C)C(=O)N[C@@H](CCC(=O)O)C(=O)N[C@@H](CCC(N)=O)C(=O)N[C@@H](CCC(=O)O)C(=O)N[C@@H](CCCCN)C(=O)N[C@@H](CCC(N)=O)C(=O)N[C@@H](CCCCN)C(=O)N[C@@H](CCCCN)C(=O)N[C@@H](CCC(N)=O)C(=O)N[C@@H](CCCNC(=N)N)C(=O)N[C@@H](CCC(=O)O)C(=O)N[C@@H](CCC(N)=O)C(=O)N[C@@H](C)C(=O)N[C@@H](CCC(=O)O)C(=O)N[C@H](C(=O)N[C@@H](CC(N)=O)C(=O)N[C@@H](CCCCN)C(=O)N[C@@H](CCC(N)=O)C(=O)N[C@H](C(=O)N[C@@H](CC(C)C)C(=O)N[C@@H](C)C(=O)N[C@@H](CCC(N)=O)C(=O)N[C@H](C(N)=O)C(C)C)[C@@H](C)CC)[C@@H](C)O)[C@@H](C)CC)[C@@H](C)CC)C(C)C)C(C)C` [compound 37] (Pentanoyl-VLSLD[dV]PIKLK([γGlu-C16 diacid])KILLEQEKQKKQREQAETNKQILAQV-NH2), at CFR1R receptor, the “Emax (% I)” value was 22 % I and the EC50 was > 250 nM. Also, at human CRF2a receptor, the EC50 amounted to 0.13 nM.

In the case of `CC[C@H](C)[C@H](N)C(=O)N[C@H](C(=O)N[C@@H](CC(C)C)C(=O)N[C@@H](CO)C(=O)N[C@@H](CC(C)C)C(=O)N[C@@H](CC(=O)O)C(=O)N[C@H](C(=O)N1CCC[C@H]1C(=O)N[C@H](C(=O)N[C@@H](CCCCN)C(=O)N[C@@](C)(CC(C)C)C(=O)N[C@@H](CCCCNC(=O)CC[C@H](NC(=O)CCCCCCCCCCCCCCC(=O)O)C(=O)O)C(=O)N[C@@H](CCCCN)C(=O)N[C@H](C(=O)N[C@@H](CC(C)C)C(=O)N[C@@H](CC(C)C)C(=O)N[C@@H](CCC(=O)O)C(=O)N[C@@H](CCC(N)=O)C(=O)N[C@@H](CCC(=O)O)C(=O)N[C@@H](CCCCN)C(=O)N[C@@H](CCC(N)=O)C(=O)N[C@@H](CCCCN)C(=O)N[C@@H](CCCCN)C(=O)N[C@@H](CCC(N)=O)C(=O)N[C@@H](CCCNC(=N)N)C(=O)N[C@@H](CCC(=O)O)C(=O)N[C@@H](CCC(N)=O)C(=O)N[C@@H](C)C(=O)N[C@@H](CCC(=O)O)C(=O)N[C@H](C(=O)N[C@@H](CC(N)=O)C(=O)NC(C)(C)C(=O)N[C@@H](CCC(N)=O)C(=O)N[C@H](C(=O)N[C@@H](CC(C)C)C(=O)N[C@@H](C)C(=O)N[C@@H](CCC(N)=O)C(=O)N[C@H](C(N)=O)C(C)C)[C@@H](C)CC)[C@@H](C)O)[C@@H](C)CC)[C@@H](C)CC)C(C)C)C(C)C` [compound 38] (H-IVLSLDVPIK[αMeL]K([γGlu-C16 diacid])KILLEQEKQKKQREQAETN[Aib]QILAQV-NH2), on CFR1R receptor, the “Emax (% I)” value is 6 % I and the EC50 was > 250 nM. The EC50 at human CRF2a receptor turned out to be 0.49 nM.
